In ChEMBL document CHEMBL3769326, “Discovery of fluoroquinolone derivatives as potent, selective inhibitors of PI3K” (Medchemcomm, 2015):

Key:
[1] = target: Phosphatidylinositol 4,5-bisphosphate 3-kinase catalytic subunit gamma isoform (Homo sapiens, UniProt P48736); assay: Inhibition of human PI3K 110gamma by fluorescence-based immunoassay
[2] = target: PI3-kinase p110-alpha/p85-alpha (Homo sapiens, UniProt P42336); assay: Inhibition of human PI3K p110alpha/p85alpha by fluorescence-based immunoassay; type: protein-complex assay
[3] = target: T1, Phosphatidylinositol 4,5-bisphosphate 3-kinase catalytic subunit delta isoform (Homo sapiens, UniProt O00329); assay: Inhibition of human PI3Kdelta by fluorescence-based immunoassay
T1 sequence (O00329 whole entry): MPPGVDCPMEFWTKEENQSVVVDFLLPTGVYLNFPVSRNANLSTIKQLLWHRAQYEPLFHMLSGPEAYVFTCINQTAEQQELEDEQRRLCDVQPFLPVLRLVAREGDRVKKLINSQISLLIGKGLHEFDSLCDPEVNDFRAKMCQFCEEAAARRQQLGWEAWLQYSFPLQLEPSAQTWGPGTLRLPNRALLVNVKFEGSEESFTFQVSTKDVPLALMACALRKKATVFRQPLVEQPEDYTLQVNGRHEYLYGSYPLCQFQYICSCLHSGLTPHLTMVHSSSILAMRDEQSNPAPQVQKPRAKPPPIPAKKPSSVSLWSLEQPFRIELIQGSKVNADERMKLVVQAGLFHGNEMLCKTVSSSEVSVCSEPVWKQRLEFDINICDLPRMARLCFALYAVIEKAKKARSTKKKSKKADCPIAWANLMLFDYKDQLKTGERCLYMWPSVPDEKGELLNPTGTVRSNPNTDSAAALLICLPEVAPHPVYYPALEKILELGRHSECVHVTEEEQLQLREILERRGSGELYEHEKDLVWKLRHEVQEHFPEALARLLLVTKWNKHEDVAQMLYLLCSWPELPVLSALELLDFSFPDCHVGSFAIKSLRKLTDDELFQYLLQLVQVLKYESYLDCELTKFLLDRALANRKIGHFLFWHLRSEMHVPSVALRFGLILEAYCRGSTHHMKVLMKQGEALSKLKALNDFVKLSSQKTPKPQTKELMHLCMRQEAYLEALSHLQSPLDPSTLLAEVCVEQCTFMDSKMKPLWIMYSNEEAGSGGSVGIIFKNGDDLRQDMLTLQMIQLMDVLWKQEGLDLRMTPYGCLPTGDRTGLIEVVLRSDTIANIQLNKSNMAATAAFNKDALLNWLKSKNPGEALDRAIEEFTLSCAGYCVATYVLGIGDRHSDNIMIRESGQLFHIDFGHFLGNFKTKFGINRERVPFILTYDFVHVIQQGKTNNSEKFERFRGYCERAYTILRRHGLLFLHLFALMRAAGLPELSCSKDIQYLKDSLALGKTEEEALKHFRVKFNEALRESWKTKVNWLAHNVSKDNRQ

[4] = tested on: HeLa; assay: Antiproliferative activity against human HeLa cells after 72 hrs by MTT assay; type: functional, cell-based
[5] = tested on: A549; assay: Antiproliferative activity against human A549 cells after 72 hrs by MTT assay; type: functional, cell-based; details: A549, 72 h
[6] = target: Phosphatidylinositol 3-kinase regulatory subunit beta/Phosphatidylinositol 4,5-bisphosphate 3-kinase catalytic subunit beta isoform (Homo sapiens, UniProt P42338); assay: Inhibition of human PI3K p110beta/p85beta by fluorescence-based immunoassay; type: protein-complex assay
[7] = tested on: MCF7; assay: cells; details: Homo sapiens, MCF7, 72 h
[8] = tested on: HepG2; assay: cells; details: Homo sapiens, HepG2, 72 h
[9] = Cytotoxicity against macrophages after 72 hrs by MTT assay; type: cell-based, Macrophage

Sequence of PI3-kinase p110-alpha/p85-alpha (P27986 whole entry, canonical isoform): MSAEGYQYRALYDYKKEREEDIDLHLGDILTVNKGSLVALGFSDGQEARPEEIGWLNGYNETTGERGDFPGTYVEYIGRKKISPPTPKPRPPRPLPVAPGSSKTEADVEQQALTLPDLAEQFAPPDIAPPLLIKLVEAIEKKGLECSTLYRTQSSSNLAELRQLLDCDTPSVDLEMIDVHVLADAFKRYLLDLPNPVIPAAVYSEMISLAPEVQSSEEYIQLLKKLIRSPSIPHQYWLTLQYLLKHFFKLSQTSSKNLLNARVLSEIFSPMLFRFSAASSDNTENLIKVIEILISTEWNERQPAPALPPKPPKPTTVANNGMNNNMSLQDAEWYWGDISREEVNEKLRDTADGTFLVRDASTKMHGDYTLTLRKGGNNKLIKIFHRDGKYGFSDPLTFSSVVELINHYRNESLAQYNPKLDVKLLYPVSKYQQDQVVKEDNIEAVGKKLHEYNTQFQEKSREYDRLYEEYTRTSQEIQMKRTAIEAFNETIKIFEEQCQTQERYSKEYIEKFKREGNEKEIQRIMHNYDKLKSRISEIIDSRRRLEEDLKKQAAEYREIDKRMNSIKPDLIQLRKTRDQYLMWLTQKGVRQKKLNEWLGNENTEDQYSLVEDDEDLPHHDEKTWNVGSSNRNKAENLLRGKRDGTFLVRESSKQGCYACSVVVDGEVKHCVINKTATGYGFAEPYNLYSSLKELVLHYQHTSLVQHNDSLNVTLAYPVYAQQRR
Sequence of PI3-kinase p110-alpha/p85-alpha (P42336 whole entry, canonical isoform): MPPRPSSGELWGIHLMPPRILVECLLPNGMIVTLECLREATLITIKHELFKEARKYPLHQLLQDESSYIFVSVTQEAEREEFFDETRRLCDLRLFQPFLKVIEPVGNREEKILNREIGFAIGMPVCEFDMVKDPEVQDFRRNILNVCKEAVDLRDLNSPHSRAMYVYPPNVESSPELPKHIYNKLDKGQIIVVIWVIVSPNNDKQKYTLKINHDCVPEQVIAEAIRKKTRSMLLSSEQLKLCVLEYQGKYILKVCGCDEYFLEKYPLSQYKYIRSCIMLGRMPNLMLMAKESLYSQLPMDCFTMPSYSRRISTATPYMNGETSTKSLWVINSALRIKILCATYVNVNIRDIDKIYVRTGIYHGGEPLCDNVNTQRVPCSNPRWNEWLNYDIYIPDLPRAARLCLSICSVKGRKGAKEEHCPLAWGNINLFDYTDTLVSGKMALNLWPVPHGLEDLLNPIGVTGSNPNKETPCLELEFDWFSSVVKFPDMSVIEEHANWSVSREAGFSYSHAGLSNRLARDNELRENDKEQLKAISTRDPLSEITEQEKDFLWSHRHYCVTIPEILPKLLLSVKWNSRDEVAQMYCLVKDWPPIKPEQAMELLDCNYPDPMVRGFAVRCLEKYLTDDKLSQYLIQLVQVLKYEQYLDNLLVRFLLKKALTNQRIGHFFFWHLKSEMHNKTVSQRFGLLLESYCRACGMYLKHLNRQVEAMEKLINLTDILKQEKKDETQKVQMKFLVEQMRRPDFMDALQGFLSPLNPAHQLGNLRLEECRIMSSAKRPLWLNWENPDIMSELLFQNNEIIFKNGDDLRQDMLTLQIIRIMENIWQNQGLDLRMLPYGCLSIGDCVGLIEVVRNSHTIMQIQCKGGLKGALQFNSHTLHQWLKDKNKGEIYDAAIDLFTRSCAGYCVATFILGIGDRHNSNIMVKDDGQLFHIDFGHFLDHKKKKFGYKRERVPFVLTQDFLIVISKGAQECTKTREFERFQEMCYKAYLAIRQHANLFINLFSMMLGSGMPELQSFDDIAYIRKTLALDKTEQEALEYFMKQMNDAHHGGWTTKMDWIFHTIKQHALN
Sequence of Phosphatidylinositol 4,5-bisphosphate 3-kinase catalytic subunit gamma isoform (P48736 whole entry, canonical isoform): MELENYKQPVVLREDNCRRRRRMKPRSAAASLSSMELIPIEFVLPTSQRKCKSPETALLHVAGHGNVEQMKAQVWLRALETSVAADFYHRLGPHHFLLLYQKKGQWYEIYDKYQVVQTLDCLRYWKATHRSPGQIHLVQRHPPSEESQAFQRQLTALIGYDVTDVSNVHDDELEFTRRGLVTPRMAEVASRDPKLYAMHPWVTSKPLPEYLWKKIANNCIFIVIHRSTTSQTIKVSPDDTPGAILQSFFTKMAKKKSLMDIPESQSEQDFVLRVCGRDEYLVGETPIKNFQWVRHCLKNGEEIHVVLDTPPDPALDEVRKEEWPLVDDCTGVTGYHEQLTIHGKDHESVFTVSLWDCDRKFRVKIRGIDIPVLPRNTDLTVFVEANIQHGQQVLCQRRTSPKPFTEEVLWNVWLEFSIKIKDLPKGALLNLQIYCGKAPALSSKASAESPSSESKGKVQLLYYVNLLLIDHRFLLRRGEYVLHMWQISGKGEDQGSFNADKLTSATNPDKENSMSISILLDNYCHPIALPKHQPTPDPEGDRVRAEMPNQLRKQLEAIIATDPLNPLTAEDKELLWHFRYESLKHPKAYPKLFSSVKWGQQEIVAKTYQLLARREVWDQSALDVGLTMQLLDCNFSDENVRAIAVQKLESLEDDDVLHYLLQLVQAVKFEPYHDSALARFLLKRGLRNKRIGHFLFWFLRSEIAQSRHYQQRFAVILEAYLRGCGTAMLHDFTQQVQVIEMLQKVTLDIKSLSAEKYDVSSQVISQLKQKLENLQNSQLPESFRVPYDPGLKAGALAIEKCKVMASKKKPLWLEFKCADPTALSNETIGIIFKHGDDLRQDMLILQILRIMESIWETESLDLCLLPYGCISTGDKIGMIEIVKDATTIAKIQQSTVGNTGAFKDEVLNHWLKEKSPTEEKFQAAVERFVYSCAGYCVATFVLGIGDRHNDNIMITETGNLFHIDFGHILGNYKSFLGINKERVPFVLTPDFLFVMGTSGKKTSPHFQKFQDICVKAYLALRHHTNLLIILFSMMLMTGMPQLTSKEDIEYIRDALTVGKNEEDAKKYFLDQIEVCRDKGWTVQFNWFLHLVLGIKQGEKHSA
Sequence of Phosphatidylinositol 3-kinase regulatory subunit beta/Phosphatidylinositol 4,5-bisphosphate 3-kinase catalytic subunit beta isoform (P42338 whole entry, canonical isoform): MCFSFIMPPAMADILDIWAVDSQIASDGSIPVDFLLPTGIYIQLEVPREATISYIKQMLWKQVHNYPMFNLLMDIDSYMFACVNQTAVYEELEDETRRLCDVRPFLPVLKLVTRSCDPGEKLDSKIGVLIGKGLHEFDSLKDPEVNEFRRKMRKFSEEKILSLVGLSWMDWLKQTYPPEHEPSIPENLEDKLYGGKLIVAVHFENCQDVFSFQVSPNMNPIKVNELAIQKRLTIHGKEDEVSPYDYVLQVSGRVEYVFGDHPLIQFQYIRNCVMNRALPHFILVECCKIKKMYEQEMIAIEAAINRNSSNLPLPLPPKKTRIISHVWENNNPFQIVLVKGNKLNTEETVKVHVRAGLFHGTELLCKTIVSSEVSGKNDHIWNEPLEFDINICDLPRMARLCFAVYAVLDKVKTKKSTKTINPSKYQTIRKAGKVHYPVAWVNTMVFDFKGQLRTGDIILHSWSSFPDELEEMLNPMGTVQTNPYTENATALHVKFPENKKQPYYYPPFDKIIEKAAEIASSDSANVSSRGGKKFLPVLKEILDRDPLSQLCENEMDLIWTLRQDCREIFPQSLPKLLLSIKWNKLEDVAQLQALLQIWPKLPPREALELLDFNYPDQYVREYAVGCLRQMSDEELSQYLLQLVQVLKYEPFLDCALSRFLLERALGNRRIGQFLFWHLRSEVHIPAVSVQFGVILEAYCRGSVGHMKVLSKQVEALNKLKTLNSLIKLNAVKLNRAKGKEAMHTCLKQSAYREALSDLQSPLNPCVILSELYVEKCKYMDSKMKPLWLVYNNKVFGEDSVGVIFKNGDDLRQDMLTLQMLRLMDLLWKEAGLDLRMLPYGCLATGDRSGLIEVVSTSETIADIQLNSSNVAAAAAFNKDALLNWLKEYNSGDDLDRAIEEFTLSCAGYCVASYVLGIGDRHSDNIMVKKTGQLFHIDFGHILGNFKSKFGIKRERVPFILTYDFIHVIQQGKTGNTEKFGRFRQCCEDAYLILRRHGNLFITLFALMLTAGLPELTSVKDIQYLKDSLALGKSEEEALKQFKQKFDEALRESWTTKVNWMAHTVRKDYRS
Sequence of Phosphatidylinositol 3-kinase regulatory subunit beta/Phosphatidylinositol 4,5-bisphosphate 3-kinase catalytic subunit beta isoform (O00459 whole entry, further chain, canonical isoform): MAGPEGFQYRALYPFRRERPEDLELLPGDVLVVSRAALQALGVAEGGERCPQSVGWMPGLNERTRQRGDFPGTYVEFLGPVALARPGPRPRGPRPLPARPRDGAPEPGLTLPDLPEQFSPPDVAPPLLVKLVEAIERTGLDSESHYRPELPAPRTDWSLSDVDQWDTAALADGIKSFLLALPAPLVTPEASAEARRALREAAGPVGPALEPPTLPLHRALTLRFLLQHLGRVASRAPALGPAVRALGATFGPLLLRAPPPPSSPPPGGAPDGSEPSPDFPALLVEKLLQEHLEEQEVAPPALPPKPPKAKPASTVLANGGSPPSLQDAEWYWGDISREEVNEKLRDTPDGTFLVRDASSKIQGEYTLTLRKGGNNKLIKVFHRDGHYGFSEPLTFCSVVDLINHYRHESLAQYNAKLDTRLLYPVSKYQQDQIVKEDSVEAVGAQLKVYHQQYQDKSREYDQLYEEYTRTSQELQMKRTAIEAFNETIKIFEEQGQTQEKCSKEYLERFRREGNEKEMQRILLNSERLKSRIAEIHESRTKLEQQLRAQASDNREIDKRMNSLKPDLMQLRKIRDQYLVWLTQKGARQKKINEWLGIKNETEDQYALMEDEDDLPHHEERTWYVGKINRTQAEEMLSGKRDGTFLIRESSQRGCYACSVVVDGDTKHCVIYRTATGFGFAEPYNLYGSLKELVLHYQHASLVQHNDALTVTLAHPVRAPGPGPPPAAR

For `CCn1cc(C(=O)O)c(=O)c2cc(F)c(N3CCN(C(=O)c4ccc(OC)nc4)CC3)cc21`, the IC50 [1] was 0.279 µM, the IC50 [2] was over 1 µM and the IC50 [3] was over 1 µM. It also gave an IC50 [4] of 154 µM, an IC50 [5] of over 1000 µM and an IC50 [6] of over 1 µM. For the same compound, the IC50 [7] was 357 µM and the IC50 [8] was 426 µM.
Compound `O=C(O)c1cn(C2CC2)c2cc(N3CCN(C(=O)c4cc(Cl)ccc4O)CC3)c(F)cc2c1=O` has an IC50 [1] of 0.174 µM, an IC50 [2] of 0.963 µM and an IC50 [3] of 0.553 µM. The IC50 [4] was 64.2 µM, the IC50 [5] was 114 µM and the CC50 at 72 h [9] was 269 µM. For the same compound, the IC50 [6] was over 1 µM, the IC50 [7] was 88.4 µM and the IC50 [8] was 50.6 µM.
In the case of `O=C(O)c1cn(C2CC2)c2cc(N3CCN(C(=O)c4cc([N+](=O)[O-])cc([N+](=O)[O-])c4O)CC3)c(F)cc2c1=O`, the IC50 [1] is reported as 0.056 µM, the IC50 [2] is reported as 0.356 µM and the IC50 [3] is reported as 0.271 µM. The IC50 [4] was 0.06 µM, the IC50 [5] was 0.67 µM and the CC50 at 72 h [9] was 365 µM. For the same compound, the IC50 [6] was over 1 µM, the IC50 [7] was 0.11 µM and the IC50 [8] was 0.29 µM.
Compound `O=C(O)c1cn(C2CC2)c2cc(N3CCN(C(=O)c4cc([N+](=O)[O-])ccc4O)CC3)c(F)cc2c1=O` has an IC50 [1] of 0.185 µM, an IC50 [2] of 0.591 µM and an IC50 [3] of 0.722 µM. The IC50 [4] was 25.8 µM, the IC50 [5] was 87.1 µM and the CC50 at 72 h [9] was 297 µM. The IC50 [6] was over 1 µM, the IC50 [7] was 47.9 µM and the IC50 [8] was 122 µM.
For `COc1ccc(C(=O)N2CCN(c3cc4c(cc3F)c(=O)c(C(=O)O)cn4C3CC3)CC2)c(O)c1`, the IC50 [1] was 0.089 µM, the IC50 [2] was 0.642 µM and the IC50 [3] was 0.348 µM. For the same compound, the IC50 [4] was 0.16 µM, the IC50 [5] was 0.85 µM and the CC50 at 72 h [9] was 311 µM. For the same compound, the IC50 [6] was over 1 µM, the IC50 [7] was 0.33 µM and the IC50 [8] was 2.59 µM.
With `CCn1cc(C(=O)O)c(=O)c2cc(F)c(N3CCN(C(=O)c4cccnc4Cl)CC3)cc21` the IC50 [1] was 0.259 µM, the IC50 [2] was over 1 µM and the IC50 [3] was over 1 µM. It also gave an IC50 [4] of 88.9 µM, an IC50 [5] of 279 µM and an IC50 [6] of over 1 µM. It also gave an IC50 [7] of 212 µM and an IC50 [8] of over 1000 µM.
`CCn1cc(C(=O)O)c(=O)c2cc(F)c(N3CCN(C(=O)c4cc(Cl)ccc4O)CC3)cc21` showed an IC50 [1] of 0.098 µM, an IC50 [2] of 0.712 µM and an IC50 [3] of 0.311 µM. It also gave an IC50 [4] of 0.96 µM, an IC50 [5] of 1.55 µM and a CC50 at 72 h [9] of 273 µM. For the same compound, the IC50 [6] was over 1 µM, the IC50 [7] was 1.21 µM and the IC50 [8] was 2.94 µM.
